Assay [1] has as its target Serine/threonine-protein kinase pim-1 (Homo sapiens, UniProt P11309). The assay can be described thus: Inhibition of human recombinant Pim1 using RSRHSSYPAGT as substrate and 30 uM ATP by radiometric assay.
For assay [2], the target named is Serine/threonine-protein kinase pim-2 (Homo sapiens, UniProt Q9P1W9). Briefly: Inhibition of human recombinant Pim2 using RSRHSSYPAGT as substrate and 5 uM ATP by radiometric assay.
Assay [3] has as its target Casein kinase II alpha/beta (Homo sapiens, UniProt P68400). It counts as protein-complex assay.
A further assay relates to BXPC-3. The assay can be described thus: Antiproliferative activity against human BxPC3 cells after 48 hrs by alamar blue assay. It counts as functional, cell-based. As to conditions: BXPC-3, 48 h. On the technique in general: The colour change of resazurin is a common sign of viable cells or microbes.
Assay [4] in a line: Antiproliferative activity against human SUM149PT cells after 48 hrs by alamar blue assay. Format: functional, cell-based.
In the next assay the test system is K562. Briefly: Antiproliferative activity against human K562 cells after 48 hrs by alamar blue assay. Conditions: K562, 48 h. It counts as functional, cell-based.
The next assay has as its system MV4-11. Briefly: Antiproliferative activity against human MV411 cells after 48 hrs by alamar blue assay. As to conditions: MV4-11, 48 h. It counts as functional, cell-based.
In assay [5] the test system is MDA-MB-453 (Homo sapiens). The assay can be described thus: Antiproliferative activity against human MDA-MB-453 cells after 48 hrs by alamar blue assay. Conditions: MDA-MB-453, 48 h.

Each structure is given as a SMILES string.

From ChEMBL document CHEMBL2016532, “Novel potent dual inhibitors of CK2 and Pim kinases with antiproliferative activity against cancer cells” (Bioorg Med Chem Lett, 2012) come the findings set out here.

As usually defined, the IC50 is the concentration at which inhibition is half-maximal. The term EC50 denotes the concentration that produces a half-maximal response. High values mean weaker potency, low ones greater potency.

Chain of Serine/threonine-protein kinase pim-1 (P11309 whole entry): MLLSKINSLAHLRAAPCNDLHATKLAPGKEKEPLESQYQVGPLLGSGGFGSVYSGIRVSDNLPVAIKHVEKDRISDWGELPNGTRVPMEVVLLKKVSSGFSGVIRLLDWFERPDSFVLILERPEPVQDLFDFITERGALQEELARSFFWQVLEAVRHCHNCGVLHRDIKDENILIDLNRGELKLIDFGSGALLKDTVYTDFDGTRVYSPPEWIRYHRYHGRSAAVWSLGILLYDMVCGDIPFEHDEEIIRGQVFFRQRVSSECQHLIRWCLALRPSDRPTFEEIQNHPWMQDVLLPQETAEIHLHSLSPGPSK
Chain of Serine/threonine-protein kinase pim-2 (Q9P1W9 whole entry): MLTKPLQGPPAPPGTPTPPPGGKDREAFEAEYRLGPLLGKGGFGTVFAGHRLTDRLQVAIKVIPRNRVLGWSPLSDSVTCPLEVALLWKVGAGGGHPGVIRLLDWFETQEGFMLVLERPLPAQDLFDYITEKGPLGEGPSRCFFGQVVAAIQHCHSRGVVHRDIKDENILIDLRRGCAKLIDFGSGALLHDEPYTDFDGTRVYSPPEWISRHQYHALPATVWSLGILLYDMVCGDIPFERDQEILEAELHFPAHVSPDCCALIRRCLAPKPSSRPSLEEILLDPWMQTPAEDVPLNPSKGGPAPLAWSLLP
Chain of Casein kinase II alpha/beta (P67870 whole entry): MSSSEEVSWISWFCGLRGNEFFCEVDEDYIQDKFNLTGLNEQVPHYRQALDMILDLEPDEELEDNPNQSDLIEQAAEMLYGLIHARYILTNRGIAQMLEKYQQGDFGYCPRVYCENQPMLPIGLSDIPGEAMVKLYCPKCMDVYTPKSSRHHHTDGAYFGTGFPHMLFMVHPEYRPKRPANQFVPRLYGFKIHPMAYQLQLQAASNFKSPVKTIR
Chain of Casein kinase II alpha/beta (P68400 whole entry): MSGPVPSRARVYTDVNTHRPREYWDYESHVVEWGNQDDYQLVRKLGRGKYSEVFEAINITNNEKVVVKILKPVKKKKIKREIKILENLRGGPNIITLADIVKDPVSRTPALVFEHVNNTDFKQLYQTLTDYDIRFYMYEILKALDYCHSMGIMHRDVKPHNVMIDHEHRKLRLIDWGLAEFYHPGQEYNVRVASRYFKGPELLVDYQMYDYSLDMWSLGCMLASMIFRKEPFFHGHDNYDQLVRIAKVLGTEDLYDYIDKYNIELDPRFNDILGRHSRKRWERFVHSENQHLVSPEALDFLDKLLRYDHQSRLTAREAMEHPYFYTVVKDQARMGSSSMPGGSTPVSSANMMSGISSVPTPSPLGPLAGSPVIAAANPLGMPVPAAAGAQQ

Regarding `Fc1cccc(Nc2nc3c(-c4nnc[nH]4)cccc3c3sccc23)c1`, the IC50 in assay [1] came to 0.003 µM; in assay [2], 0.005 µM; in assay [3], 0.007 µM. Moreover, the EC50 in the assay with BXPC-3 is 9.1 µM; in assay [4] it was 8.1 µM; in the assay on K562, more than 10 µM; in the assay with MV4-11 it was 4.6 µM; in assay [5], 2.6 µM.

In the case of `O=C(O)c1cccc2c1nc(Nc1ccccc1Cl)c1ccsc12`, the figures for the 50% inhibitory concentration (IC50) in assay [1], in assay [2] and in assay [3] were 0.069 µM, 0.121 µM and 0.139 µM, respectively.

For the compound `Fc1ccccc1Nc1nc2c(-c3nnc[nH]3)cccc2n2cncc12`, the results for the half-maximal inhibitory concentration (IC50) in assay [1], in assay [2] and in assay [3] were 0.038 µM, 0.043 µM and 0.035 µM, respectively. The 50% effective concentration (EC50) with BXPC-3 is 15 µM; in assay [4], 5.4 µM; in the assay with K562, 5.4 µM; in the assay with MV4-11, 0.1 µM; in assay [5], 3.1 µM.

On to `c1cc(-c2nnc[nH]2)c2nc(Nc3ccncc3)c3ccsc3c2c1`, for which the IC50 in assay [1] worked out at 0.091 µM; in assay [2], 0.068 µM; in assay [3], 0.216 µM.

For the compound `CN(C)CCOc1ccc(Nc2nc3c(-c4nnc[nH]4)cccc3c3sccc23)cc1`, the 50% inhibitory concentration (IC50) stood at 0.016 µM in assay [1], 0.034 µM in assay [2] and 0.136 µM in assay [3].

`COc1cccc(Nc2nc3c(-c4nnc[nH]4)cccc3c3sccc23)c1Cl`: the results for the IC50 in assay [1], in assay [2] and in assay [3] were 0.005 µM, 0.021 µM and 0.017 µM, respectively.

Regarding `Cc1cc2c(Nc3ccccc3F)nc3c(-c4nnc[nH]4)cccc3c2s1`, the IC50 came to 0.015 µM in assay [1], 0.006 µM in assay [2] and 0.026 µM in assay [3].

For `c1cc(-c2nnc[nH]2)c2nc(NC3CC3)c3ccsc3c2c1`, the 50% inhibitory concentration (IC50) in assay [1] was found to be 0.015 µM; in assay [2] it was 0.025 µM; in assay [3], 0.062 µM.

As for `Fc1ccc(Nc2nc3c(-c4nnc[nH]4)cccc3c3sccc23)c(F)c1`, the 50% inhibitory concentration (IC50) turned out to be 0.002 µM in assay [1], 0.002 µM in assay [2] and 0.011 µM in assay [3]. In addition, the EC50 with BXPC-3 is more than 30 µM; in assay [4], more than 30 µM; in the assay with K562, 4.8 µM; with MV4-11, 1.7 µM; in assay [5], 4.6 µM.

`Fc1ccc(Nc2nc3c(-c4nnc[nH]4)cccc3c3sccc23)c(Cl)c1`: the IC50 in assay [1] amounted to 0.009 µM; in assay [2], 0.009 µM; in assay [3], 0.052 µM.

As for `c1ccc(Nc2nc3c(-c4nnc[nH]4)cccc3c3cscc23)cc1`, the half-maximal inhibitory concentration (IC50) in assay [1] was determined as 0.027 µM; in assay [2], 0.017 µM; in assay [3], 0.01 µM.

`FC(F)(F)Oc1ccc(Nc2nc3c(-c4nnc[nH]4)cccc3c3sccc23)c(Cl)c1`: the IC50 in assay [1] stood at 0.064 µM; in assay [2], 0.076 µM; in assay [3], 0.075 µM.

With `Fc1ccccc1Nc1nc2c(-c3nnc[nH]3)cccc2c2sccc12`, the results for the concentration for half-maximal inhibition (IC50) in assay [1], in assay [2] and in assay [3] were 0.002 µM, 0.002 µM and 0.004 µM, respectively. Moreover, the EC50 with BXPC-3 is more than 30 µM; in assay [4] it was 9.5 µM; in the assay on K562, 3.6 µM; with MV4-11, 0.6 µM; in assay [5], 7.1 µM.

Regarding `COc1cccc(Nc2nc3c(-c4nnc[nH]4)cccc3c3sccc23)c1`, the IC50 in assay [1] was 0.011 µM; in assay [2], 0.028 µM; in assay [3], 0.011 µM.

As to `Clc1ccc(Nc2nc3c(-c4nnc[nH]4)cccc3c3sccc23)cc1`, the IC50 worked out at 0.014 µM in assay [1], 0.086 µM in assay [2] and 0.033 µM in assay [3].

On to `N#Cc1cccc(Nc2nc3c(-c4nnc[nH]4)cccc3c3sccc23)c1`, for which the IC50 stood at 0.01 µM in assay [1], 0.012 µM in assay [2] and 0.126 µM in assay [3].

Turning to `Oc1ccc(Nc2nc3c(-c4nnc[nH]4)cccc3c3sccc23)c(Cl)c1`, the IC50 came to 0.014 µM in assay [1], 0.004 µM in assay [2] and 0.01 µM in assay [3].

As to `COc1ccccc1Nc1nc2c(-c3nnc[nH]3)cccc2c2sccc12`, the values for the IC50 in assay [1], in assay [2] and in assay [3] were 0.007 µM, 0.049 µM and 0.084 µM, respectively.

On to `NC(=O)c1ccc(Nc2nc3c(-c4nnc[nH]4)cccc3c3sccc23)cc1`, for which the IC50 in assay [1] was 0.017 µM; in assay [2], 0.017 µM; in assay [3] it was 0.139 µM.

Consider `Fc1ccc(Nc2nc3c(-c4nnc[nH]4)cccc3c3sccc23)cc1F`, for which the IC50 is 0.009 µM in assay [1], 0.015 µM in assay [2] and 0.077 µM in assay [3].

Turning to `c1ccc(Nc2nc3c(-c4nnc[nH]4)cccc3n3cccc23)cc1`, the half-maximal inhibitory concentration (IC50) in assay [1] came to 0.014 µM; in assay [2], 0.03 µM; in assay [3] it was 0.101 µM.

Take `c1cncc(Nc2nc3c(-c4nnc[nH]4)cccc3c3sccc23)c1`: the figures for the IC50 in assay [1], in assay [2] and in assay [3] were 0.017 µM, 0.022 µM and 0.076 µM, respectively.

Turning to `Clc1ccccc1Nc1nc2c(-c3nnc[nH]3)cccc2c2scnc12`, the figures for the IC50 in assay [1], in assay [2] and in assay [3] were 0.008 µM, 0.009 µM and 0.039 µM, respectively. In addition, the 50% effective concentration (EC50) with BXPC-3 was 2.8 µM; in assay [4], 12.6 µM; with K562 it was more than 10 µM; with MV4-11, 4.7 µM; in assay [5] it was 2 µM.

Turning to `Clc1cccc(Nc2nc3c(-c4nnc[nH]4)cccc3c3sccc23)c1`, the 50% inhibitory concentration (IC50) is 0.006 µM in assay [1], 0.006 µM in assay [2] and 0.015 µM in assay [3].

For the compound `Fc1ccccc1Nc1nc2c(-c3nnc[nH]3)cccc2n2cccc12`, the IC50 in assay [1] stood at 0.008 µM; in assay [2] it was 0.02 µM; in assay [3], 0.089 µM. Further, the 50% effective concentration (EC50) was more than 30 µM in the assay with BXPC-3; 22.8 µM in assay [4]; 8.2 µM in the assay with K562; 3.7 µM with MV4-11; 28.4 µM in assay [5].

As for `c1ccc(Nc2nc3c(-c4nnc[nH]4)cccc3c3ccsc23)cc1`, the IC50 in assay [1] turned out to be 0.016 µM; in assay [2], 0.014 µM; in assay [3] it was 0.03 µM.

In the case of `COc1ccc(Nc2nc3c(-c4nnc[nH]4)cccc3c3sccc23)cc1`, the figures for the IC50 in assay [1], in assay [2] and in assay [3] were 0.004 µM, 0.006 µM and 0.005 µM, respectively. The 50% effective concentration (EC50) with BXPC-3 stood at 28 µM; in assay [4], 8.2 µM; in the assay on K562, 7.2 µM; with MV4-11, 6.5 µM; in assay [5], 7.4 µM.

Take `Fc1cc(F)cc(Nc2nc3c(-c4nnc[nH]4)cccc3c3sccc23)c1`: the IC50 in assay [1] came out at 0.009 µM; in assay [2], 0.024 µM; in assay [3] it was 0.151 µM.

On to `c1ccc(CNc2nc3c(-c4nnc[nH]4)cccc3c3sccc23)cc1`, for which the IC50 in assay [1] came to 0.004 µM; in assay [2], 0.052 µM; in assay [3], 0.048 µM.

In the case of `NC(=O)c1cccc2c1nc(Nc1ccccc1Cl)c1ccsc12`, the IC50 in assay [1] was determined as 0.005 µM; in assay [2], 0.012 µM; in assay [3], 0.022 µM.

Take `c1cc(-c2nnc[nH]2)c2nc(N3CCOCC3)c3ccsc3c2c1`: the values for the IC50 in assay [1], in assay [2] and in assay [3] were 0.035 µM, 0.01 µM and 0.128 µM, respectively.

Take `FC(F)(F)c1cccc(Nc2nc3c(-c4nnc[nH]4)cccc3c3sccc23)c1`: the 50% inhibitory concentration (IC50) in assay [1] was determined as 0.016 µM; in assay [2], 0.052 µM; in assay [3] it was 0.024 µM.
